Experiments:
hSTING WT = target: T1, hSTING WT (Homo sapiens, UniProt Q86WV6, H232R); assay: Differential scanning fluorometry (DSF) binding to purified STING AA140-379, wild type; details: for hSTING Tm Shift WT: DSF, ligand 1 mM, 1 mg/ml STING AA140-379
T1 construct: DNA encoding amino acids 140-379 (amino acid numbering corresponding to Swiss Prot Q86WV6); 6xHIS (N, cleaved yes); SUMO (N, cleaved yes); made in house; host or cells: Rosetta2 (DE3) E. coli
Procedure: (§1) Cells were grown in lysogeny broth at 37° C. until a […] absorbance of 0.6 was reached. […] Cell pellets were re-suspended on ice in a buffer containing 50 mM Tris hydrochloride (Tris-HCl) pH 7.5, 500 mM sodium chloride (NaCl), 20 mM imidazole, 10% glycerol, 1 mM tris(2-carboxyethyl)phosphine hydrochloride (TCEP) and protease inhibitor tablet (Pierce) (Buffer A). Cells were lysed using an S-450D sonifier (Emmerson industrial) on ice. […] Protein was aliquoted, flash frozen in liquid nitrogen and stored at −80° C. until use.
(§2) The protein is heated in the presence of a dye that binds to and fluoresces in hydrophobic environments. The protein is thermally denatured by heating resulting in increased dye binding to the unfolded protein and fluorescence. The temperature midpoint (Tm) of a proteins denaturation is established by calculating the half maximal value of the denaturation curve. The temperature midpoint of the protein in the presence of a ligand is directly related to the affinity of the ligand for the protein and therefore its ability to stabilize the protein at higher temperatures.
(§3) Each of wild type hSTING, HAQ allele hSTING and REF allele hSTING were used with each of the reference compounds and compounds of the invention as listed in Table 4. Samples were placed in hard shell PCR plate (Bio-Rad). The fluorescence as a function of temperature was recorded in a CFX 96 real time PCR machine (Bio-Rad) reading on the HEX channel, excitation 450-490, emission 560-580 nm. The temperature gradient was from 15-80° C. ramping 0.5° C. per 15 seconds and recording every 0.5° C. After subtraction of the background signal from a sample lacking protein and ligand. The midpoint temperature (Tm) was calculated by fitting the curves of the fluorescence as a function of temperature to a Boltzmann sigmoidal function (Graph Pad Prism).

hSTING REF allele = target: T2, hSTING REF allele (Homo sapiens, UniProt Q86WV6); assay: Differential scanning fluorometry (DSF) binding to purified STING AA140-379, REF allele; details: for hSTING Tm Shift REF: DSF, ligand 1 mM, 1 mg/ml STING AA140-379; for Tm shift compared with 2′3′-RR-(A)(A) and 2′3′-(G)(A): for the REF allele
T2 construct: DNA encoding amino acids 140-379 (amino acid numbering corresponding to Swiss Prot Q86WV6); 6xHIS (N, cleaved yes); SUMO (N, cleaved yes); made in house; host or cells: Rosetta2 (DE3) E. coli
Procedure: as §1, §2, §3

hSTING HAQ allele = target: T3, hSTING HAQ allele (Homo sapiens, UniProt Q86WV6, G230A/H232R/R293Q); assay: Differential scanning fluorometry (DSF) binding to purified STING AA140-379, HAQ allele; details: ligand 1 mM, 1 mg/ml STING AA140-379
T3 construct: DNA encoding amino acids 140-379 (amino acid numbering corresponding to Swiss Prot Q86WV6); 6xHIS (N, cleaved yes); SUMO (N, cleaved yes); made in house; host or cells: Rosetta2 (DE3) E. coli
Procedure: as §1, §2, §3

[1] = target: T4, hSTING HAQ allele in THP1-Dual cells (Homo sapiens, UniProt Q86WV6, G230A/H232R/R293Q/R71H); assay: THP1-Dual IRF-3 inducible secreted luciferase reporter assay (type I interferon activation), without digitonin; type: cell-based
T4 construct: a human monocyte cell line containing the hSTING HAQ allele; host or cells: THP1-Dual cells
Procedure: After 30 minutes, cells were washed and fresh RPMI media containing 10% FBS was added, and cells were incubated at 37° C. with 5% CO2 Cell culture supernatants from each sample were collected after overnight incubation, and 10 μL of the cell culture supernatants was added to 50 μL QUANTI-Luc reagent (Invivogen). Type I interferon activation was determined by measuring secreted luciferase levels on a SpectraMax M3 spectrophotometer (Molecular Devices).

[2] = for all three alleles (WT, HAQ, REF)

T1 sequence (Q86WV6 140-379 H232R limits assumed): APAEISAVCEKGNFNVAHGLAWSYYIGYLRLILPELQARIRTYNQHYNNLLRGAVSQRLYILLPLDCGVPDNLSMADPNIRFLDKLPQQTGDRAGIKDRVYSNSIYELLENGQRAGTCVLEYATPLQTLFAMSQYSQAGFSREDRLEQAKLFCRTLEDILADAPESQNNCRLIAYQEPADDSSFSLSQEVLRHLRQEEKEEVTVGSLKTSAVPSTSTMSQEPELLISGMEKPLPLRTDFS
T2 sequence (Q86WV6 140-379): as the sequence (Q86WV6 140-379 H232R limits assumed) above, with R93H counted along it
T4 sequence (Q86WV6 whole entry R71H/G230A/H232R/R293Q): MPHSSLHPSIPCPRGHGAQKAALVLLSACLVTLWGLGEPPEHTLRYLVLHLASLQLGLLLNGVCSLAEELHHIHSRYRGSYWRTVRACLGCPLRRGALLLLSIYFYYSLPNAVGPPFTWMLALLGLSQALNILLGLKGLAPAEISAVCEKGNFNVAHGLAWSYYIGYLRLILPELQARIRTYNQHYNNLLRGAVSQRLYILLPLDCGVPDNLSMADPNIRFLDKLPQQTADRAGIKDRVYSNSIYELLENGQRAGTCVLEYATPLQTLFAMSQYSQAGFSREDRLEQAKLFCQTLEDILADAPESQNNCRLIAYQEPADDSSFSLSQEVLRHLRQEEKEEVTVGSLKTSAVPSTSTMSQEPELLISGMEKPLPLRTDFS
T3 sequence (Q86WV6 140-379 G230A/H232R/R293Q limits assumed): as the sequence (Q86WV6 140-379 H232R limits assumed) above, with G91A, R154Q counted along it

hSTING Tm Shift WT (hSTING WT) [°C]	hSTING Tm Shift REF (hSTING REF allele) [°C]	hSTING Tm Shift HAQ (hSTING HAQ allele) [°C]	EC50 [1] [µM]	SMILES	Tm shift compared with reference compound 2′3′-RR-(A)(A) (hSTING WT; [2])	Tm shift compared with 2′3′-RR-(A)(A) and 2′3′-(G)(A) (hSTING REF allele)	Tm shift compared with natural ligand 2′3′-(G)(A) (hSTING WT; [2])
9.5	6.2	16.2	26.9	Nc1ncnc2c1ncn2[C@@H]1O[C@@]23CO[C@@H]1[C@@H]2O[P@](=O)(S)OC[C@@H]1C[C@@H](O[P@](=O)(S)OC3)[C@H](n2cnc3c(N)ncnc32)O1 [Compound 21a, dithio-(Rp,Rp)-cyclic-[3′H-A(2′,5′)p-2′O,4′C-LNA-A(3′,5′)p]]	–	–	–
5.0	4.2	10.0	77.3	Nc1ncnc2c1ncn2[C@@H]1O[C@@]23CO[C@@H]1[C@@H]2O[P@@](=O)(S)OC[C@@H]1C[C@@H](O[P@](=O)(S)OC3)[C@H](n2cnc3c(N)ncnc32)O1 [Compound 21b, dithio-(Rp,Sp)-cyclic-[3′H-A(2′,5′)p-2′O,4′C-LNA-A(3′,5′)p]]	–	–	–
0.6	0.6	2.2	–	O=C(Nc1ncnc2c1ncn2[C@@H]1O[C@@]23CO[C@@H]1[C@@H]2O[P@](=O)(S)OC[C@@H]1C[C@@H](O[P@](=O)(S)OC3)[C@H](n2cnc3c(NC(=O)c4ccccc4)ncnc32)O1)c1ccccc1 [Compound 22a, dithio-(Rp,Rp)-cyclic-[3′H-BzA(2′,5′)p-2′O,4′C-LNA-BzA(3′,5′)p]]	–	–	–
4.6	4.6	5.9	–	O=C(Nc1ncnc2c1ncn2[C@@H]1O[C@@]23CO[C@@H]1[C@@H]2O[P@@](=O)(S)OC[C@@H]1C[C@@H](O[P@](=O)(S)OC3)[C@H](n2cnc3c(NC(=O)c4ccccc4)ncnc32)O1)c1ccccc1 [Compound 22b, dithio-(Rp,Sp)-cyclic-[3′H-BzA(2′,5′)p-2′O,4′C-LNA-BzA(3′,5′)p]]	–	–	–
11.8	10.2	18.2	10	Nc1ncnc2c1ncn2[C@@H]1O[C@@H]2CO[P@@](=O)(S)O[C@H]3[C@H]4OC[C@]3(CO[P@@](=O)(S)O[C@@H]1[C@@H]2F)O[C@H]4n1cnc2c(N)ncnc21 [Compound 27a, dithio-(Rp,Rp)-cyclic-[3′F-A(2′,5′)p-2′O,4′C-LNA-A(3′,5′)p]]	comparable to or greater than that of the reference compound 2′3′-RR-(A)(A)	greater Tm shift than both 2′3′-RR-(A)(A) and 2′3′-(G)(A)	–
8.2	7.1	13.2	81	Nc1ncnc2c1ncn2[C@@H]1O[C@@H]2CO[P@](=O)(S)O[C@H]3[C@H]4OC[C@]3(CO[P@@](=O)(S)O[C@@H]1[C@@H]2F)O[C@H]4n1cnc2c(N)ncnc21 [Compound 27b, dithio-(Rp,Sp)-cyclic-[3′F-A(2′,5′)p-2′O,4′C-LNA-A(3′,5′)p]]	–	–	–
18.36	11.9	29.6	30.2	Nc1nc2c(ncn2[C@@H]2O[C@@]34CO[C@@H]2[C@@H]3O[P@](=O)(S)OC[C@H]2O[C@@H](n3cnc5c(N)ncnc53)[C@H](O)[C@@H]2O[P@](=O)(S)OC4)c(=O)[nH]1 [Compound 33a, 3′3′-RR-(A)(2′O,4′C-LNA-G)]	comparable to or greater than that of the reference compound 2′3′-RR-(A)(A)	greater Tm shift than both 2′3′-RR-(A)(A) and 2′3′-(G)(A)	greater Tm shift than the natural ligand 2′3′-(G)(A)

The next lines start with the molecule.

SMILES	hSTING Tm Shift WT (hSTING WT) [°C]	hSTING Tm Shift REF (hSTING REF allele) [°C]	hSTING Tm Shift HAQ (hSTING HAQ allele) [°C]	EC50 [1] [µM]	Tm shift compared with reference compound 2′3′-RR-(A)(A) (hSTING WT; [2])	Tm shift compared with 2′3′-RR-(A)(A) and 2′3′-(G)(A) (hSTING REF allele)	Tm shift compared with natural ligand 2′3′-(G)(A) (hSTING WT; [2])
O=C(Nc1ncnc2c1ncn2[C@@H]1O[C@@]23CO[C@@H]1[C@@H]2O[P@](=O)(S)OC[C@@]12CO[C@@H]([C@H](n4cnc5c(NC(=O)c6ccccc6)ncnc54)O1)[C@@H]2O[P@](=O)(S)OC3)c1ccccc1 [Compound 4a]	4.3	4.4	5.6	341	–	–	–
Nc1ncnc2c1ncn2[C@@H]1O[C@@]23CO[C@@H]1[C@@H]2O[P@@](=O)(S)OC[C@@]12CO[C@@H]([C@H](n4cnc5c(N)ncnc54)O1)[C@@H]2O[P@](=O)(S)OC3 [Compound 5b]	11.3	8.7	18.3	19.3	comparable to or greater than that of the reference compound 2′3′-RR-(A)(A)	greater Tm shift than both 2′3′-RR-(A)(A) and 2′3′-(G)(A)	–
Nc1ncnc2c1ncn2[C@@H]1O[C@@H]2CO[P@@](=O)(S)O[C@H]3[C@H]4OC[C@]3(CO[P@@](=O)(S)O[C@@H]1[C@@H]2O)O[C@H]4n1cnc2c(N)ncnc21 [Compound 10a, dithio-(Rp,Rp)-cyclic-[A(2′,5′)p-2′O,4′C-LNA-A(3′,5′)p]]	10.4	7.5	16.1	24.3	–	–	–
Nc1ncnc2c1ncn2[C@@H]1O[C@@H]2CO[P@](=O)(S)O[C@H]3[C@H]4OC[C@]3(CO[P@@](=O)(S)O[C@@H]1[C@@H]2O)O[C@H]4n1cnc2c(N)ncnc21 [Compound 10b, dithio-(Rp,Sp)-cyclic-[A(2′,5′)p-2′O,4′C-LNA-A(3′,5′)p]]	8.7	7.4	13.9	110	–	–	–
Nc1ncnc2c1ncn2[C@@H]1O[C@@H]2CO[P@](=O)(S)O[C@H]3[C@H]4OC[C@]3(CO[P@](=O)(S)O[C@@H]1[C@@H]2O)O[C@H]4n1cnc2c(N)ncnc21 [Compound 10d, dithio-(Sp,Sp)-cyclic-[A(2′,5′)p-2′O,4′-C-LNA-A(3′,5′)p]]	4.1	3.2	5.0	> 150	–	–	–
CC(C)(C)[Si](C)(C)O[C@H]1[C@H]2O[P@](=O)(S)OC[C@@]34CO[C@@H]([C@H](n5cnc6c(N)ncnc65)O3)[C@@H]4O[P@](=O)(S)OC[C@H]1O[C@H]2n1cnc2c(N)ncnc21 [Compound 11a, dithio-(Rp,Rp)-cyclic-[3′-OTBS-A(2′,5′)p-2′O,4′C-LNA-A(3′,5′)p]]	7.0	5.4	11.6	–	–	–	–
CC(C)(C)[Si](C)(C)O[C@H]1[C@H]2O[P@](=O)(S)OC[C@@]34CO[C@@H]([C@H](n5cnc6c(N)ncnc65)O3)[C@@H]4O[P@@](=O)(S)OC[C@H]1O[C@H]2n1cnc2c(N)ncnc21 [Compound 11b, dithio-(Rp,Sp)-cyclic-[3′-OTBS-A(2′,5′)p-2′O,4′C-LNA-A(3′,5′)p]]	−1.8	−1.5	3.3	–	–	–	–
O=C(Nc1ncnc2c1ncn2[C@@H]1O[C@@H]2CO[P@@](=O)(S)O[C@H]3[C@H]4OC[C@]3(CO[P@@](=O)(S)O[C@@H]1[C@@H]2O)O[C@H]4n1cnc2c(NC(=O)c3ccccc3)ncnc21)c1ccccc1 [Compound 11d, dithio-(Rp,Rp)-cyclic-[3′-BzA(2′,5′)p-2′O,4′C-LNA-BzA(3′,5′)p]]	2.5	2.4	3.7	–	–	–	–
O=C(Nc1ncnc2c1ncn2[C@@H]1O[C@@H]2CO[P@](=O)(S)O[C@H]3[C@H]4OC[C@]3(CO[P@@](=O)(S)O[C@@H]1[C@@H]2O)O[C@H]4n1cnc2c(NC(=O)c3ccccc3)ncnc21)c1ccccc1 [Compound 11e, dithio-(Rp,Sp)-cyclic-[3′-BzA(2′,5′)p-2′O,4′C-LNA-BzA(3′,5′)p]]	1.1	1.2	1.5	–	–	–	–
O=C(Nc1ncnc2c1ncn2[C@@H]1O[C@@H]2CO[P@@](=O)(S)O[C@H]3[C@H]4OC[C@]3(CO[P@](=O)(S)O[C@@H]1[C@@H]2O)O[C@H]4n1cnc2c(NC(=O)c3ccccc3)ncnc21)c1ccccc1 [Compound 11f, dithio-(Sp,Rp)-cyclic-[3′-BzA(2′,5′)p-2′O,4′C-LNA-BzA(3′,5′)p]]	6.6	6.5	7.5	–	–	–	–

Reference: patent publication US11098077B2, “Locked nucleic acid cyclic dinucleotide compounds and uses thereof” (CHINOOK THERAPEUTICS, INC., priority 2016, dated 2021)
